According to paper PMC8096265, “A functional LSD1 coregulator screen reveals a novel transcriptional regulatory cascade connecting R-loop homeostasis with epigenetic regulation” (Nucleic Acids Research, 2021):

Assays:
[1] = test system: rTetR-LSD1 at synP-mCherry reporter in NIH/3T3 cells; experiment: Flow-cytometric synP-mCherry reporter silencing by rTetR-LSD1; type: cell-based, murine; settings: n = 3; for effect of inhibitor on rTetR-LSD1 activity at synP (mCherry silencing): 10 μM GSK-LSD1 or 400 nM TSA, started in parallel with DOX (1 μg/ml), vs DMSO
Description: The fluorescent reporter expressing mCherry from a synthetic promoter (synP), consisting of six tetO binding sites upstream of an EF1a promoter, was cloned into pMSCV vector, on which expression of mCherry was driven by the synP promoter element and coupled to Blasticidin resistance via a P2A (pMSCV-tetO-EF1a-mCherry-2A-Blasti). The rTetR-LSD1 fusion construct was cloned into a pRRL backbone by standard cloning methods. The LSD1 construct was kindly provided by Tim Somervaille. Expression was driven from an SFFV promoter and coupled to Hygromycin resistance via a P2A sequence (pRRL-rTetR-LSD1-P2A-Hygro). shRNA guides were cloned into the SGEN vector ([49]).
NIH/3T3, Lenti-X 293T and Platinum-E retroviral packaging cell lines were cultivated in DMEM high glucose media (Sigma-Aldrich) supplemented with 10% FBS, 20 mM glutamate, 10 mM sodium pyruvate, 10 mM HEPES (pH 7.3), 100 U/ml penicillin and […] in an incubator providing 37°C and 5% CO2. For retroviral packaging of pMSCV vectors, 20 μg of plasmid were precipitated for 20 min in HBS buffer (140 mM NaCl, 25 mM HEPES, 0.75 mM Na2HPO4, pH 7.0) together with 125 mM CaCl2 and 10 μg GagPol helper plasmid. The mix was added to a 10 cm dish with Platinum-E cells growing at 75–85% confluence in supplemented DMEM. After 16 and 24 h, the media was replaced with fresh DMEM. Supernatant containing the virus was gathered 40–50 h after transfection, filtered through a 0.45 μm filter and added to the target cells at 50–70% confluence. Antibiotic selection for pMSCV-tetO-EF1a-mCherry-2A-Blasti with 10 μg/ml Blasticidin was started 2 days after transduction and kept up for 7 days. For […] packaging of pRRL-vectors, plasmids were mixed with helper plasmids pCMVR8.74 (pCMVR8.74 was a gift from Didier Trono, Addgene #22036) and pCAG-Eco (pCAG-Eco was a gift from Arthur Nienhuis & Patrick Salmon, Addgene #35617) and 3× (w/w) excess of polyethyleneimine 25K in serum free DMEM. […] Expression of GFP and mCherry was analysed every 1–3 days using a MACSQuant Vyb flow cytometer.

[2] = test system: RNA:DNA hybrid structures (R-loops) in NIH/3T3 cells; experiment: DRIP-qPCR with S9.6 antibody, R-loops; type: cell-based, murine; settings: relative to DMSO, NIH/3T3, n = 3
Procedure: Based on a detailed assessment of various DRIP protocols ([53]), DRIP was performed as described, with slight adaptations to workflow #19 ([53]). In brief, NIH/3T3 cells were harvested, washed once with 1X PBS and cross-linked in 1% formaldehyde/PBS for 10 min at room temperature. Crosslinking was quenched with 500 mM glycine for 5 min at room temperature. Cells were lysed in 300 μl of ChIP lysis buffer (50mM HEPES–KOH at pH 7.5, 140 mM NaCl, 1 mM EDTA at pH 8, 1% Triton X-100, 0.1% sodium-deoxycholate, 1% SDS) per 2 million cells for 30 min on ice and homogenized with a syringe every 10 min. Chromatin was fragmented by sonication using an EpiShear Probe Sonicator (Active Motif) for 2 × 12 cycles (20 s pulse, 30 s pause, 40% amplitude). The fragmented chromatin was supplemented with 300 mM NaCl and 50 μg of RNase A in 450 μl TE buffer (10 mM Tris–HCl pH 8, 10 mM EDTA pH 8) and incubated at 37°C for 1 h. The cross-linked D. melanogaster mononucleosomes were treated in parallel to obtain DNA for spike-in controls. To remove proteins and reverse the cross-links, the samples were treated with 15 μl of Proteinase K (20 mg/ml; Thermo Fisher Scientific) at 65°C for 16 h. […] The pellet was resuspended in 5 mM Tris–HCl, pH 8.5 and concentration was determined by NanoDrop. […]

EZH2 = experiment: Global H3K27me3 signal after EZH2 inhibition; type: cell-based; settings: EZH2-specific inhibitor; Supplementary Figure S6C
[3] = test system: rTetR-LSD1 silencing of synP-mCherry in NIH/3T3 cells; experiment: ChECS pooled shRNA screen, primary sequencing data; type: cell-based, murine; settings: 14 days DOX; for sequencing reads neg2 / sequencing reads neg3 / sequencing reads neg4 / sequencing reads neg5: mCherry-negative sorted population; for sequencing reads neg2 / sequencing reads pos2: replicate 2; for sequencing reads neg3 / sequencing reads pos3: replicate 3; for sequencing reads neg4 / sequencing reads pos4: replicate 4; for sequencing reads neg5 / sequencing reads pos5: replicate 5; for sequencing reads pos1 / sequencing reads pos2 / sequencing reads pos3 / sequencing reads pos4 / sequencing reads pos5: mCherry-positive sorted population; for sequencing reads pos1: replicate 1
Description: After spiking in control shRNAs at equimolar amounts, the shRNA-mirE library (5451 shRNAs and 8 control shRNAs) targeting 1010 chromatin-associated murine genes was transduced into NIH/3T3 cells expressing the synP-mCherry reporter and rTetR-LSD1. To ensure library representation, a total of 30 million cells were infected with 10% transduction efficiency using conditions that predominantly lead to a single retroviral integration and represent each shRNA in a calculated number of >500 cells. Cells were split into replicates and selected with 2.5 mg/ml Neomycin for 7 days before starting treatment with 1 μg/ml doxycycline. Throughout selection >3 × 10^6 cells per replicate were maintained at each passage to preserve library representation. After 14 days of DOX treatment, cells were sorted into mCherry-positive (top 6–8%, minimum of 5 × 10^5 cells) and mCherry-negative (lowest 75–80%, minimum of 6 × 10^6 cells, see Supplementary Figure S2) populations using a FACS Aria III. Genomic DNA for both populations and 5 replicates was isolated with phenol-extraction using PhaseLock tubes, followed by ethanol precipitation. For each sample, DNA from at least 10^6 cells was used as template in multiple parallel 50-μl PCR reactions, each containing 1 μg template, 1× AmpliTaq Gold buffer, 0.2 mM of each dNTP, 2 mM MgCl2, 0.3 μM of each primer and 1.25 U AmpliTaq Gold Polymerase (Life Technologies). In a first round of PCRs, random barcodes and sample barcodes were added to the shRNA sequences using the following cycling parameters: 95°C for 10 min; 28 cycles of (95°C for 30 s, 54°C for 45 s and 72°C for 60 s); 72°C for 7 min and primers MM2P51_for and MM2P71_rev (Supplementary Table S3). PCR products were combined for each sample, purified from a 1% agarose gel and 20 ng per sample were transferred to a second round of PCR, using similar cycling parameters as for PCR1, but with only 10 ng template per reaction, 6 cycles of amplification and primers MM2P52_for and MM2P72_rev_N708 (Supplementary Table S3). In the second PCR, standard Illumina P7 adaptors and the Illumina N708 index were added to the sequences (total product length = 428 bp). All primers used for the library preparation are listed in […]. The final libraries were cleaned up from a 1% agarose gel, pooled and analysed on an Illumina HiSeq 3000 deep sequencer (150 bp read length including the 22 nucleotides of the guide strand), using standard Illumina primers. Sequence processing was performed using a public Galaxy server (www.usegalaxy.eu). All primary screen data are provided in Supplementary Data Table S1. For each shRNA, the number of matching reads was normalized to the total number of library-specific reads per lane and imported into Microsoft Excel for further analysis. Completely depleted shRNAs (0 reads at T0) obtained a fold depletion value of 1 × 10^−3. The average enrichment score for each individual shRNA was calculated by dividing the geometric mean of the normalized reads of the mCherry+ population by the respective normalized reads mCherry– populations (mCherry+/mCherry–) across five replicates. The gene score was derived by summarizing the average enrichment score of all shRNAs per gene. P-values are based on a Poisson distribution of each shRNA in each individual replicate followed by the combination of all P-values across all replicates using Fisher′s method (cumulative χ^2). χ^2 is a chi-squared distribution with 2k degrees of freedom, where k is the number of tests being combined. This fact was used to determine the P-value for χ^2 followed by a Bonferroni correction for multiple comparison to obtain a P-value for each investigated gene in the library.

| Molecule | sequencing reads neg2 [3] | sequencing reads neg3 [3] | sequencing reads neg4 [3] | sequencing reads neg5 [3] | sequencing reads pos1 [3] | sequencing reads pos2 [3] | sequencing reads pos3 [3] | sequencing reads pos4 [3] | sequencing reads pos5 [3] | effect of inhibitor on rTetR-LSD1 activity at synP (mCherry silencing) [1] | further results |
| --- | --- | --- | --- | --- | --- | --- | --- | --- | --- | --- | --- |
| CCCc1cc(C)[nH]c(=O)c1CNC(=O)c1cc(-c2ccnc(N3CCN(C)CC3)c2)cc2c1cnn2C(C)C [GSK343] | – | – | – | – | – | – | – | – | – | – | LSD1 silencing capacity at the synP element after GSK343 treatment ([1]; 5 μM GSK343 vs DMSO during rTetR-LSD1 recruitment via DOX, time course): diminished LSD1 silencing capacity at the synP element; R-loop occupancy after GSK343 treatment ([2]; 5 μM GSK343, 3 days, synP element and representative endogenous loci): increased R-loop occupancy; H3K27me3 signal after GSK343 treatment (EZH2): global reduction of H3K27me3 signal |
| Homez.5313: library shRNA, guide TAAAACAGTAGTTCCTAGCCTT | 0.001 | 22 | 0 | 4 | 130 | 19 | 22 | 4 | 48 | – | – |
| c1ccc([C@@H]2C[C@H]2NC2CCNCC2)cc1 [GSK-LSD1] | – | – | – | – | – | – | – | – | – | the activity of rTetR-LSD1 at the synP element is dependent on the catalytic activity of LSD1 and HDACs | R-loops after GSK-LSD1 treatment ([2]; 50 μM GSK-LSD1, 3 days, synP element and representative endogenous regions): substantial increase in R-loops |
| Kdm4b.2934: library shRNA, guide TTCTTGGTGATGACGATCTGGC | 0.001 | 0 | 0 | 14 | 14 | 426 | 0 | 1 | 159 | – | – |
| CC(/C=C/C(=O)NO)=C\[C@@H](C)C(=O)c1ccc(N(C)C)cc1 [Trichostatin A (TSA), Trichostatin A] | – | – | – | – | – | – | – | – | – | the activity of rTetR-LSD1 at the synP element is dependent on the catalytic activity of LSD1 and HDACs | – |
